From publication PMC10459042, “Synthesis of 1,2,3-Triazole-Containing Methoxylated Cinnamides and Their Antileishmanial Activity against the Leishmania braziliensis Species” (Pharmaceuticals, 2023)

How the values were obtained:
[1] = system: Leishmania braziliensis axenic amastigotes; test: In vitro antileishmanial activity against axenic amastigotes (MTT); type: cell-based; conditions: Leishmania braziliensis, 48 h, 48 h at 24 °C, MTT, mean ± standard deviation
Experimental: To obtain the axenic amastigotes, 1 × 10^9 stationary promastigotes were washed three times in sterile phosphate-buffered saline (PBS) and incubated in 5 mL FBS for 48 h at 37 °C. Parasites were washed with cold PBS, and their morphology was evaluated with an optical microscope after Giemsa staining as previously described.
(§1) The in vitro antileishmanial activity was evaluated by incubating the promastigotes or axenic amastigotes (1 × 10^6 cells/well) with the 24 synthetic derivatives (Compounds 5–28; 0 to 600 µg/mL) in 96-well culture plates (Nunc, Nunclon, Roskilde, Denmark) for 48 h at 24 °C. Due to the difficulty in obtaining a high concentration of murine macrophages, the cytotoxicity experiment was evaluated by incubating such cells (5 × 10^5 per mL) with Compound 28 (0 to 600 µg/mL), which presented the best antileishmanial activity, for 48 h at 37 °C in a 5% CO2 environment. AmpB (0 to 10 µg/mL; Sigma-Aldrich, St. Louis, MO, USA) was used as a positive control in both experiments. The cell viability was assessed using the 3-(4.5-dimethylthiazol-2-yl)-2.5-diphenyl tetrazolium bromide (MTT, Sigma-Aldrich, St. Louis, MO, USA) method. The optical density (OD) values were read using a microplate spectrophotometer (Molecular Devices, Spectra Max Plus, San Jose, CA, USA) at 570 nm. Results were entered into Microsoft Excel (version 10.0) spreadsheets, and the 50% Leishmania and macrophage inhibitory concentrations (IC50 and CC50, respectively) were calculated by applying a sigmoidal regression of the dose–response curve. The SI was calculated by dividing the CC50 with the respective IC50 values.

[2] = system: Leishmania braziliensis stationary promastigotes; test: In vitro antileishmanial activity against promastigotes (MTT); type: cell-based; conditions: Leishmania braziliensis; 48 h at 24 °C, MTT, mean ± standard deviation
Experimental: The study was approved by the Committee for the Ethical Handling of Research Animals from the Federal University of Minas Gerais (protocol number 085/2017). Leishmania braziliensis (MHOM/BR/1975/M2904) promastigotes were grown at 24 °C in Schneider’s medium (Sigma-Aldrich, USA) supplemented with 20% heat-inactivated fetal bovine serum (FBS, Sigma-Aldrich, USA) and 20 mmol/L L-glutamine at pH 7.4 [65].
as §1

Structure (SMILES) | IC50 [1] [µg/mL] | melting point [°C] | IC50 [2] [µg/mL]
COc1ccc(/C=C/C(=O)NCc2cn(Cc3ccc(OC)cc3)nn2)cc1 [Compound 12, N-((1-(4-methoxybenzyl)-1H-1,2,3-triazol-4-yl)methyl) (4-methoxy) cinnamide] | > 600 | 169 to 170.2 | > 600
COc1ccc(/C=C/C(=O)NCc2cn(Cc3ccc(C)cc3)nn2)cc1 [Compound 5, N-((1-(4-methylbenzyl)-1H-1,2,3-triazol-4-yl)methyl) (4-methoxy) Cinnamide] | > 600 | 166 to 167.2 | > 600
COc1ccc(/C=C/C(=O)NCc2cn(Cc3ccc(OC(F)(F)F)cc3)nn2)cc1 [Compound 13, N-((1-(4-(trifluoromethoxy)benzyl)-1H-1,2,3-triazol-4-yl)methyl) (4-methoxy) cinnamide] | > 600 | 191.4 to 193 | > 600
COc1ccc(/C=C/C(=O)NCc2cn(Cc3ccc(C(C)C)cc3)nn2)cc1OC [Compound 17, N-((1-(4-isopropylbenzyl)-1H-1,2,3-triazol-4-yl)methyl) (3,4-dimethoxy) cinnamide] | > 600 | 175.5 to 176.4 | > 600
COc1ccc(/C=C/C(=O)NCc2cn(Cc3ccc(C(F)(F)F)cc3)nn2)cc1 [Compound 14, N-((1-(4-(trifluoromethyl)benzyl)-1H-1,2,3-triazol-4-yl)methyl) (4-methoxy) cinnamide] | > 600 | 220.5 to 221.9 | > 600
COc1ccc(/C=C/C(=O)NCc2cn(Cc3ccc(Cl)cc3)nn2)cc1OC [Compound 19, N-((1-(4-chlorobenzyl)-1H-1,2,3-triazol-4-yl)methyl) (3,4-dimethoxy) cinnamide] | > 600 | 189.6 to 190.8 | > 600
COc1ccc(/C=C/C(=O)NCc2cn(Cc3ccc(F)cc3)nn2)cc1OC [Compound 18, N-((1-(4-fluorobenzyl)-1H-1,2,3-triazol-4-yl)methyl) (3,4-dimethoxy) cinnamide] | > 600 | 174.8 to 175.5 | > 600
COc1ccc(/C=C/C(=O)NCc2cn(Cc3ccc(Cl)cc3)nn2)cc1 [Compound 8, N-((1-(4-chlorobenzyl)-1H-1,2,3-triazol-4-yl)methyl) (4-methoxy) cinnamide] | > 600 | 185.7 to 186.5 | > 600
COc1ccc(/C=C/C(=O)NCc2cn(Cc3ccc(I)cc3)nn2)cc1 [Compound 10, N-((1-(4-iodobenzyl)-1H-1,2,3-triazol-4-yl)methyl) (4-methoxy) cinnamide] | > 600 | 200.6 to 202 | > 600
COc1ccc(/C=C/C(=O)NCc2cn(Cc3ccc(F)c(F)c3)nn2)cc1 [Compound 15, N-((1-(3,4-difluorobenzyl)-1H-1,2,3-triazol-4-yl)methyl) (4-methoxy) cinnamide] | > 600 | 166.3 to 167.7 | > 600
COc1ccc(/C=C/C(=O)NCc2cn(Cc3ccc(C(C)C)cc3)nn2)cc1 [Compound 6, N-((1-(4-isopropylbenzyl)-1H-1,2,3-triazol-4-yl)methyl) (4-methoxy) cinnamide] | > 600 | 187.4 to 188.3 | > 600
COc1ccc(/C=C/C(=O)NCc2cn(Cc3ccc(C)cc3)nn2)cc1OC [Compound 16, N-((1-(4-methylbenzyl)-1H-1,2,3-triazol-4-yl)methyl) (3,4-dimethoxy) cinnamide] | > 600 | 191.6 to 192.2 | > 600
COc1ccc(/C=C/C(=O)NCc2cn(Cc3ccc(Br)cc3)nn2)cc1 [Compound 9, N-((1-(4-bromobenzyl)-1H-1,2,3-triazol-4-yl)methyl) (4-methoxy) cinnamide] | > 600 | 193.1 to 194.7 | > 600
COc1ccc(/C=C/C(=O)NCc2cn(Cc3ccc(F)cc3)nn2)cc1 [Compound 7, N-((1-(4-fluorobenzyl)-1H-1,2,3-triazol-4-yl)methyl) (4-methoxy) cinnamide] | > 600 | 178.6 to 180 | > 600
COc1ccc(/C=C/C(=O)NCc2cn(Cc3ccc([N+](=O)[O-])cc3)nn2)cc1 [Compound 11, N-((1-(4-nitrobenzyl)-1H-1,2,3-triazol-4-yl)methyl) (4-methoxy) cinnamide] | > 600 | 192.2 to 193.4 | > 600

Further lines, results first:

IC50 [1] [µg/mL] | melting point [°C] | IC50 [2] [µg/mL] | Structure (SMILES)
> 600 | 217.6 to 218.9 | > 600 | COc1ccc(/C=C/C(=O)NCc2cn(Cc3ccc([N+](=O)[O-])cc3)nn2)cc1OC [Compound 22, N-((1-(4-nitrobenzyl)-1H-1,2,3-triazol-4-yl)methyl) (3,4-dimethoxy) cinnamide]
> 600 | 198.2 to 199.6 | > 600 | COc1ccc(/C=C/C(=O)NCc2cn(Cc3ccc(Br)cc3)nn2)cc1OC [Compound 20, N-((1-(4-bromobenzyl)-1H-1,2,3-triazol-4-yl)methyl) (3,4-dimethoxy) cinnamide]
> 600 | 196.4 to 197.6 | > 600 | COc1ccc(/C=C/C(=O)NCc2cn(Cc3ccc(C(F)(F)F)cc3)nn2)cc1OC [Compound 25, N-((1-(4-(trifluoromethyl)benzyl)-1H-1,2,3-triazol-4-yl)methyl) (3,4-dimethoxy) cinnamide]
> 600 | 177.4 to 178.6 | > 600 | COc1ccc(/C=C/C(=O)NCc2cn(Cc3ccc(OC(F)(F)F)cc3)nn2)cc1OC [Compound 24, N-((1-(4-(trifluoromethoxy)benzyl)-1H-1,2,3-triazol-4-yl)methyl) (3,4-dimethoxy) cinnamide]
> 600 | 194 to 194.9 | > 600 | COc1ccc(/C=C/C(=O)NCc2cn(Cc3ccc(I)cc3)nn2)cc1OC [Compound 21, N-((1-(4-iodobenzyl)-1H-1,2,3-triazol-4-yl)methyl) (3,4-dimethoxy) cinnamide]
> 600 | 166 to 167.2 | > 600 | COc1ccc(/C=C/C(=O)NCc2cn(Cc3ccc(F)c(F)c3)nn2)cc1OC [Compound 26, N-((1-(3,4-difluorobenzyl)-1H-1,2,3-triazol-4-yl)methyl) (3,4-dimethoxy) cinnamide]
> 600 | 171.2 to 172 | > 600 | COc1ccc(Cn2cc(CNC(=O)/C=C/c3ccc(OC)c(OC)c3)nn2)cc1 [Compound 23, N-((1-(4-methoxybenzyl)-1H-1,2,3-triazol-4-yl)methyl) (3,4-dimethoxy) cinnamide]
> 600 | 191.3 to 192.7 | > 600 | CCN(CC)c1ccc2cc(-n3cc(CNC(=O)/C=C/c4ccc(OC)cc4)nn3)c(=O)oc2c1 [Compound 27, N-((1-(7-(diethylamino)-2-oxo-2H-chromen-3-yl)-1H-1,2,3-triazol-4-yl)methyl) (4-methoxy) cinnamide]
